From patent publication US9657059B2, “Immune system modulators” (Canimguide Therapeutics AB, priority 2013, dated 2017)
Each block holds one sequence with its values, some of them ahead of it. No end group written: not given here.

Experiments:
P3028 = P3028 (Homo sapiens, UniProt P02768); assay: Chip ELISA: binding of His-tag labeled P3028 to cyclic peptides, positional scan
Description: In order to identify cyclic peptides that bind to P3028, all possible variants of di- and tripeptides were synthesized on chips and the binding of the His-tag labeled P 3028 was analyzed using the ELISA-technique. Based on the identified binding motifs, looped 6-meres were produced and tested. […] Positional scans were performed in each position of the lead cyclic peptide was replaced with each of the other 19 L-amino acids. Binding of each of the substituted peptides was tested, and peptide sequences with even better binding capacity than that of the lead peptide were identified.

[1] = test system: NK-cell cytotoxicity against K562 target cells; assay type: cell-based, human
Description: The ability of specific albumin fragments to impact NK-cell cytotoxicity was also evaluated. In these experiments, synthetic peptides corresponding to albumin fragments (P3028, P3026, and P3027) (SEQ ID NOs: 185, 183, and 184, respectively) were prepared and the amount of lysis of K562 target cells was assessed (see Example 4).

K562 target cells = assay: NK-cell cytotoxicity (NKTEST); assay type: cell-based, human; details: 10 ug/ml, effector:target 40:1, four donors
Description: The NK-cell cytotoxic activity of blood mononuclear cells from four healthy donors was tested. Mononuclear cells were separated by standard Ficoll-paque Plus (Pharmacia AB, Sweden) density gradient centrifugation from heparinized blood obtained from healthy donors. NK cell cytotoxic activity of the mononuclear cells was then tested using a commercial kit (NKTEST, Orpegen Pharma GmblI, Heidelberg, Germany) following the manufacturers protocol. Briefly, the kit contains cryopreserved, NK-sensitive target cells (K562) labeled with a lipophilic green fluorescent membrane dye, which enables discrimination of effector and target cells. After incubation with effector cells, killed target cells are identified by a DNA-stain, which penetrates and specifically stain the nuclei of dead target cells. This way the percentage of killed targets can be determined by flow cytometry. The mononuclear cells were preincubated for 30 min at 37° C. with the indicated peptides (peptides have been described previously) at 10 ug/ml. Target cells were then added, giving an effector:target ratio of 40:1, and the cell mixture incubated at 37° C. for 3-4 hours. Samples were analysed on a FACSCalibur (BD Biosciences, San Jose, Calif.).

[2] = test system: PBMCs from a healthy control; assay: PBMC activation (CD69, CD71) by flow cytometry in RPMI plus 10% human AB serum; assay type: cell-based; details: 40 μg/mL; for PBMC activation, cells with enhanced CD69: 24 hours
Description: FIG. 41 is a series of graphs illustrating effects of modified peptides on activation of PBMCs from healthy control person. PBMCs were incubated with the peptides (40 μg/mL) for 24 hours in RPMI plus 10% human AB serum. Activation is determined as percentage of cells with enhanced marker CD69 using flow cytometry. FIG. 41A illustrates results of two experiments (410 and 412) performed for each peptide. FIG. 41B illustrates results of two experiments (414 and 416) performed for each peptide.
FIG. 42 is a series of graphs illustrating effects of the full length peptide P28R and the 6 amino acid central sequence (32230, FFVKLS, SEQ ID NO: 62) in culture medium containing normal human AB serum. Activation is determined as percentage of cells with enhanced marker CD69 or CD71 using flow cytometry. PBMCs were incubated with the peptides (40 μg/mL) for 24 hours in RPMI plus 10% human AB serum. FIG. 42A illustrates the results of two experiments (420 and 422) performed for each peptide. FIG. 42B illustrates the results of two experiments (424 and 426) performed for each peptide.
FIG. 46 is a series of graphs illustrating Effect of modified peptides on activation of PBMCs from healthy control person. […] PBMCs were incubated with the peptides (40 μg/mL) for 48 hours in RPMI plus 10% human AB serum.
Based on the positional scan data, it is contemplated that substitutions of SEQ ID NO: 2 can be useful in accordance with some embodiments herein for binding P3028, de-blocking the LFA-1 receptor from P3028-mediated inhibition (e.g. displacing bound P3028 peptide and P3028-structure containing molecules from the LFA-1 receptor), and/or stimulating immune cells. The activity of peptide P28R (SEQ ID NO: 2) and modifications of P28R was studied in a human ex vivo model using PBMCs from a healthy control human in short term cultures, and with PBMC activation measured as a percentage of cells with enhanced CD69 (see Example 37).
As P28R (SEQ ID NO: 2) can bind to P3028 and stimulate PBMC's from healthy controls in short term cultures, for example when in a culture medium comprising RPMI plus 10% normal human AB serum (see Example 37), it is contemplated that truncations of P28R in accordance with some embodiments herein can be useful for binding to inhibitors of any one or more of the peptides listed in Tables 1-4. Truncations of P28R were assessed for their ability to activate PBMC's (see Example 38). PBMCs were incubated with the peptides (40 μg/mL) for 24 hours in RPMI plus 10% human AB serum. PBMC activation was measured as percent cells with enhanced expression of either CD69 (FIG. 42A) or CD71 (FIG. 42B) using flow cytometry. […] However, PBMCs were also incubated with the peptides in cancer sera from dogs, or in caner sera from human cancer patients (see FIG. 43). […] As such, it is contemplated that in accordance with some embodiments herein, P28R, P28 core, or combinations of these peptides are useful for stimulating immune cells in the serum of a subject that has cancer.
Effects of modified peptides on the activation of PBMCs from a healthy control person were assessed (see Example 41). PBMCs were incubated with the peptides (40 μg/mL) for 48 hours in RPMI plus 10% human AB serum, and PBMC activation was determined by flow cytometry based on the percentage of cells with enhanced marker CD69 or CD71. Peptides P28R (SEQ ID NO: 2), P28 core (peptide 32230) (SEQ ID NO: 62), 32251 ([…]) (SEQ ID NO: 592), 32814 ([…]) (SEQ ID NO: 586), 32815 ([…]) (SEQ ID NO: 595), 32665 ([…]) (SEQ ID NO: 593), and 32819 ([…](C(PEG24))) (SEQ ID NO: 594) were tested. […] Accordingly, it is contemplated herein that

PBMCs [3] = assay: PBMC activation (CD69/CD71, flow cytometry) in RPMI plus 10% human AB serum; assay type: cell-based; details: healthy control person, 40 μg/mL; for PBMC activation, cells with enhanced CD69: 24 hours
Description: The activity of peptide P28R (SEQ ID NO: 2) and modifications of P28R was studied in a human ex vivo model using PBMCs in short term cultures, 24 or 48 hours. Effects of P28R and modifications of P28R on PBMC's from a healthy control person were studied. Activation was measured as percentage of cells with enhanced marker CD69 using flow cytometry. PBMCs were incubated with the peptides (40 μg/mL) for 24 hours in RPMI plus 10% human AB serum.
As observed in Example 37, P28R (SEQ ID NO: 2) can stimulate PBMC's from healthy controls in short term cultures when RPMI plus 10% normal human AB serum is used as culture medium. Truncations of P28R were also assessed for their ability to activate PBMC's. PBMCs were incubated with the peptides (40 μg/mL) for 24 hours in RPMI plus 10% human AB serum. PBMC activation was measured as percent cells with enhanced expression of either CD69 (FIG. 42A) or CD71 (FIG. 42B) using flow cytometry. Two experiments were performed for each peptide.
Effects of modified peptides on activation of PBMCs from healthy control person were assessed. Activation was determined as percentage of cells with enhanced marker CD69 or CD71 using flow cytometry. PBMCs were incubated with the peptides (40 μg/mL) for 48 hours in RPMI plus 10% human AB serum.

PBMCs [4] = assay: IL-2 induced proliferation of PBMCs, ex vivo model (3H-thymidine); assay type: cell-based, human; details: PBMCs from healthy control samples, 7 days
Description: 100 μl of RPMI1640 supplemented with 200 IU/ml penicillin, […] streptomycin, 4 mM L-glutamine (all from Sigma Chemical Co. MO, US) and 20% heat-inactivated human serum (autologous or from cancer patients) were added to uncoated, HSA or HSA/IgG coated tissue culture microtiter plates. PBMC, isolated from healthy individuals or patients with metastatic renal cell carcinoma, were diluted in RPMI/2% HSA at a concentration of 5×10^5/ml and 100 μl were added to the microtiter wells. Interleukin-2 (IL-2, Proleukin, Chiron, NL), at a final concentration of 120 IU/well, was added to some wells. Cells were cultured for 7 days in a humidified, 5% CO2-atmosphere at 37° C. Proliferation was assayed by incorporation of 1.6 μCi/well of [^3H]-thymidine (Amersham Int., UK) during the last 18 hrs. Mean values of dpm (disintegrations per minute) of triplicates were used for the calculations.
Cultures for IL-2 induced proliferation was set up with PBMC from healthy donors and autologous serum as described above with the exception that PBMC were first pre-incubated for 30 min at room temperature with the indicated albumin peptides at a concentration of 10 μg/ml. […]
The effect of different peptides on IL-2 induced proliferation was analyzed in the human ex vivo model, using PBMCs from healthy control samples. […] Proliferation was measured as incorporation of ^3H-thymidine during the final 18 hours. […]

binding to P3028, positional scan (P3028): highest affinity
Sequence: CLRLIVMCG [SEQ ID NO: 266]

binding to P3028, positional scan (P3028): highest affinity
Sequence: CLRLNVFCG [SEQ ID NO: 265]

Sequence: ELFEQLGEYKFQNALLVR [P3027]
effect on NK-cell cytotoxicity [1]: Inhibition was not seen | effect on NK-cell cytotoxicity (percent specific lysis) (K562 target cells): Inhibition was not seen

Sequence: KKLDTFFVYLSLFTER [compound 31135]
PBMC activation, cells with enhanced CD69 [2]: directly stimulate | PBMC activation, cells with enhanced CD69 (PBMCs [3]): also stimulated immune cells

Sequence: KKLDTVMVKLQLMTER [compound 30680]
PBMC activation, cells with enhanced CD69 [2]: did not stimulate | PBMC activation, cells with enhanced CD69 (PBMCs [3]): induced activation of PBMCs

Sequence: KVPQVSTPTLVEVSR (listed as Homo sapiens) [P3029]
effect on IL-2 induced proliferation (PBMCs [4]): none of the other peptides identified by their binding to the artificial cell surface had any inhibitory activity

Sequence: RKLDTFFVKLSLFTERRR [compound 32814]
PBMC activation, cells with enhanced CD69 and CD71 ([2]; 48 hours): stimulatory effect in short term cultures similar to that of P28R | PBMC activation, enhanced CD69 or CD71 (PBMCs [3]; 48 hours): stimulatory effect in short term cultures similar to that of P28R
